Data on two molecules can be found in patent US5801017A, “Production of recombinant factor Xa inhibitor of leech Hirudo medicinalis” (Bio-Technology General Corp., priority 1994, dated 1998).

Where “and” joins values, the source holds several entries; their conditions need not be identical. Equal values may be shown once. Read-outs that look alike come from different tables or passages of the source.

One series has as its system Plasmin. The series is described as follows: inhibition of plasmin (S2251). The series is classed as biochemical. Conditions: substrate S2251. As for the experimental part:
(§1) Inhibition of bovine trypsin by naturally occurring FXaI was calculated following the classical dose response method. Ki values were obtained by plotting the percentage of activity of FXaI (determined by the calorimetric assay described below) against the ratio of the concentrations of inhibitor and enzyme. The calorimetric assay was performed using 80 μM Chromozyme TH (Pentapharm, Switzerland) as substrate in 10 mM Tris-HCl, 10 mM Hepes (pH 7.8), 100 mM NaCl, 0.1% PEG 6000 at 25° C. in the presence of 3.83 or 4.27 nM bovine trypsin. Inhibitor and enzyme were preincubated for 10 min at 25° C. before adding the substrate.
(§2) Plasmin and thrombin were not inhibited by naturally occurring FXaI in a similar assay as that for trypsin. In the case of thrombin, the substrate used was the same as that used for trypsin; in the case of plasmin, S2251 was used as substrate.

The target in series [1] is FXa in a prothrombinase complex. The series is described as follows: FXa inhibitory activity in the prothrombinase complex (thrombin generation). The series is classed as biochemical. As for the experimental part:
The inhibitory activity of FXaI may also be assayed by its effect on FXa in a prothrombinase complex. The phospholipid used was rabbit brain cephalin (Sigma). The contents of one vial, suspended in 1 ml 0.15M NaCl were diluted 1:40 in the reaction mixture, i.e. 2.5 μl/100 μl. The concentrations of the other components were: FXa 250 pM, prothrombin 2.67 μM, FVa 4.2 nM and Ca^++ 1 mM in 20 mM Tris-HCl pH 7.4/150 mM NaCl/0.1% polyethylene glycol 6000. Following 10 minutes of preincubation at 37° C., the reaction was initiated by the addition of prothrombin. Aliquots were removed at various time intervals. The reaction was stopped by 10 mM EDTA and aliquots were kept on ice until assayed. The inhibition of FXa by a FXa inhibitor (e.g. FXaI of the present invention) was observed as the effect of FXaI on the generation of thrombin from prothrombin at 37° C. The amount of thrombin generated was assayed using 80 μg of the synthetic thrombin p-nitroanilide substrate S-2238 (KabiVitrum, Sweden) at 23° C.

For another series, the system named is FXa. The series is described as follows: chromogenic FXa inhibitory activity assay (hydrolysis of CHG). The series is classed as biochemical, bovine. As to the method: Increasing amounts of FXaI purified on Mono-Q were preincubated for 3 minutes with 2 pmol bovine FXa in a 1 ml cuvette. The initial rate of hydrolysis of the substrate CHG was monitored at 405 nm (see Example 2). Fraction 47 was the peak fraction of a particular purification experiment.
The assay of FXa inhibitory activity is based on the inhibition of the FXa-mediated hydrolysis of the chromogenic substrate methoxycarbonyl-D-cyclohexylglycyl-glycyl-arginyl p-nitroanilide (CHG) as described below.
The appropriate substrate concentration was determined from the molar absorbance which is 8210 at 342 nm. The reaction mixture contains 50 mM Tris-HCl pH 8.2, 5 mM CaCl2, 200 mM NaCl, 0.1% PEG, 40 μM substrate, and approximately 2 nM FXa. The FXa concentration is determined more precisely from the initial (first 20 seconds) rate of CHG hydrolysis at 40 μM in the absence of inhibitor based on the kinetic parameters mentioned above.
Inhibition of the increase in absorbance may be observed in the presence of the FXa inhibitory activity of an FXa inhibitor such as FXaI of the present invention. The inhibitor concentration is the difference in absorbance between the reaction in the presence and absence of inhibitor multiplied by the FXa concentration.
This determination assumes the formation of a 1:1 enzyme-inhibitor complex, and further assumes that the dissociation constant is low enough (i.e., tight binding) to enable essentially total binding of the inhibitor (FXaI) to the enzyme (FXa). In fact, the saturation shape of the dose-response curve (FIG. 3) provides evidence that a finite and not negligible dissociation of the inhibitor-enzyme complex occurs under these conditions. The dose response curve is represented by the degree of inhibition versus FXaI concentration and is further described in Section 5.2.
The degree of dissociation of the FXa-FXaI complex is characterized by the inhibition constant (Ki) and may be determined from the inhibited velocity of the hydrolysis of the chromogenic substrate CHG. […] The Ki of naturally occurring FXa in the chromogenic assay is about 9 nM.
The determination of inhibitor concentration determined by the above method is therefore probably underestimated. It was found useful to define the FXaI concentration as the protein concentration (IC50) required to obtain a constant degree of inhibition, usually 50% and to define the amount causing 50% inhibition under these reaction conditions to be 1 milliunit (mu) or 1 pmol. IC50 is generally higher than Ki, and depending on the type of inhibition, can be shown to depend variously on substrate concentration, Ki, Km and other factors (Segel, I. (1974) "Enzyme Kinetics", Wiley Interscience). In fact, the range of values of IC50 was determined to be about 10-20 nM.
The FXaI activity assay used to determine concentration during purification and characterization was performed in an Elisa Titertek Twin Reader, Type 380 (EF LAB). The final activity measurement of purified protein was also performed in a Phillips (model PU 8720) UV/Vis scanning spectrophotometer.

The test system of series [2] is thrombin. The series is described as follows: inhibition of thrombin (Chromozyme TH). The series is classed as biochemical. Conditions: substrate Chromozyme TH. As for the experimental part: as §1, §2
A short description of series [3]: pharmacokinetic study in mice, ex vivo APTT. On the set-up: species or system Female Balb/c mice. Conditions: for Mean APTT: ex vivo, i.v. 5.25 μg/mouse. As to the method:
The clearance of FXaI from the blood of female mice was monitored over a period of 30 minutes by assessing the ex vivo APTT (see FIG. 4) at the time points indicated. The amount of FXaI is expressed as μg FXaI [Macart and Gerbaut, Clin. Chim. Acta 122:93-101 (1982)], determined from a calibration curve consisting of in vitro APTT time versus inhibitor concentration as shown in FIG. 5B.
A preliminary pharmacokinetic experiment was performed in order to assess the clearance rate of FXaI from the circulatory system. Female Balb/c mice (20-25 gm body weight) were injected intravenously with purified FXaI (isoform A; 5.25 μg protein/mouse in 0.2 ml saline). Blood samples were drawn into 1/10 v/v 3.8% citrate at 1, 3, 10 and 30 min after injection. It was possible to obtain only one blood sample from each mouse and therefore each timepoint is from a different mouse. The plasma was then separated and assayed for APTT. The concentration of FXaI was calculated from a calibration curve of APTT versus FXaI concentration which was constructed in vitro by adding various amounts of FXaI to a plasma pool from untreated mice FIG. 5B.

The test system of series [4] is thrombin. The series is described as follows: thrombin inhibition assay according to Lottenberg et al. The series is classed as biochemical. As to the method: The refolded and dialyzed protein so obtained was assayed for FXa inhibitory activity by the biochemical chromogenic assay described in Example 2. The results are shown in Table 6 as milliunits per mg protein (mu/mg). The amount of protein causing 50% inhibition in an assay mixture containing 2 nM FXa is defined as 1 mu. In addition, the refolded protein was also tested for its inhibitory effect on thrombin, another proteolytic enzyme of the coagulation cascade, which was assayed according to Lottenberg et al. Methods Enzymol. 80:341-361 (1981).

The test system of the next series is plasma. The series is described as follows: APTT doubling by recombinant mature FXaI. Format: biochemical. As to the method: The inhibitory activity of FXaI was also assayed as the increase of the activated partial thromboplastin time (APTT) essentially as described in Spaethe, Haemostasis, AHS/Deutschland GmbH, Munich (1984), using as reagent Actin FS (Dade), which contains ellagic acid for activation of Factors XII and Factor XI, and soy bean phospholipid. Under these conditions, and in the presence of 20 mM CaCl2, only the intrinsic pathway of coagulation is activated.

Consider “naturally occurring FXaI: FXa inhibitor protein isolated from dilute leech saliva (DLS) of the leech Hirudo medicinalis; 14 kD monomer”, for which, in the series with Plasmin, the inhibition of plasmin result is “not inhibited”. Moreover, the Ki (commonly the dissociation constant of the complex between target and ligand, obtained from inhibition or displacement) in series [1] (50 pM FXa, 1.35 μM prothrombin, read-out: Ki in prothrombinase complex assay, modified protocol) worked out at 0.12 nM; in series [1] (250 pM FXa, 2.67 μM prothrombin, read-out: Ki in prothrombinase complex assay) it was 0.072 nM. In addition, the IC50 in series [1] (250 pM FXa, 2.67 μM prothrombin) is 0.19 nM; in the series with FXa (chromogenic assay, read-out: IC50 (protein concentration for 50% inhibition)), 10 to 20 nM. Moreover, the “Inhibitory activity (specific activity), FXa” value with FXa (1 mu = amount causing 50% inhibition with 2 nM FXa) is 507 mu/mg. Further, the inhibition of thrombin entry in the series on thrombin [2] is “not inhibited”. Moreover, the “FXaI calculated from the calibration curve” value in series [3] (1 min post-injection) was 0.3150 µg; in series [3] (3 min post-injection) it was 0.243 µg and 0.174 µg; in series [3] (10 min post-injection) it was 0.1245 µg; in series [3] (30 min post-injection), 0 µg. Further, the “Mean APTT” value in series [3] (1 min post-injection) was 91 s; in series [3] (3 min post-injection), 79 s and 66 s; in series [3] (10 min post-injection), 55 s; in series [3] (30 min post-injection), 29 s and 30 s. Moreover, in series [3] (mice, intravenous, 5.25 μg protein/mouse), the “half life of plasma inhibitor activity” value is given as “about 7.5 min”. Also, the “Inhibitory activity (specific activity), Thrombin” value in the series with thrombin [4] was below 1 mu/mg.

B1: mature FXaI: recombinant FXaI obtained by enterokinase cleavage of the pFSHI-6 prepeptide, about 15 kD (protein)
chain: YEVIYVDDPCEDSDCEDGNKCSPVTNECDCSPVRCRLHCNFYVKDSNGCETCACEPKCKHKNCPTGHHCNKLTNKCELKKQRRMG
For the molecule B1, the “FXa inhibitory specific activity” value was at most 8000 mu/mg protein in the series on FXa (after removal of the extension peptide from the cleavage solution by chromatography) and 4000-4500 mu/mg protein with FXa (following cleavage with enterokinase). In addition, in the series on plasma, the “concentration causing doubling of the APTT” value came out at 12.2 µg/mL.
